Measurements as given in US12527788B2, “Defining RNA-small molecule affinity landscapes enables design of a small molecule inhibitor of an oncogenic non-coding RNA” (University of Florida Research Foundation, Incorporated, priority 2017, dated 2026).

Key:
[1] = test system: 5′GAU/3′C_A (A bulge of pre-miR-18a); test: HiT-StARTS Fitness Score, 3×2 ILL selection; type: binding, human; conditions: Zobs normalized to most significant binder
Text: (§1) Additionally, Zobs Rank (and by analogy Zobs) can also be used to estimate the affinities of binding interactions (FIG. 5). Single exponential curves with an asymptote defined a correlation between Zobs and experimentally determined Kd for each compound and its cognate RNA motifs. In all cases, there is excellent correlation with R values ranging from 0.86 to 0.96. These scoring functions can provide a means to rapidly profile small molecules for binding to an “on-” and “off-” targets, as mentioned above. Zobs values were normalized to the most statistically significant RNA binder (100% Fitness) to afford Fitness Scores.
(§2) To test the general applicability of these approaches to other RNA motif libraries, we used 2DCS to select RNA motifs derived from a 3×2 internal loop library (3×2 ILL) that bind to small molecules 1-8. […] That is, selective binders have Zobs>8 (p<0.0001) and relative Zobs defined a scoring function for the selected RNA motif-small molecule interactions.
(§3) These studies identified that compound 4 bound with 100% Fitness to the 5′ G_U/3′CUA (one nucleotide U bulge) that is present in the Dicer processing sites of three microRNAs (miRNAs) in the oncogenic miR-17-92 cluster (contains six mature miRNAs),^43 miR-17, -18a, and -20a. […] The binding affinity of 4 for RNAs containing these three bulges was measured (FIG. 7).
(§4) Calculating Statistical Significance (Zobs) for Selected RNAs: To determine if the difference in frequency for given RNA in the starting library and in the selection was statistically significant, a pooled population comparison (Zobs) was calculated using equations (1) and (2):
(§5) [formula] […] Where n1 is the size of population 1 (number of reads for a selected RNA); n2 is the size of population 2 (number of reads for the same RNA from sequencing of the starting library); p1 is the observed proportion of population 1 (number of reads for a selected RNA divided by the total number of reads); p2 is the observed proportion for population 2 (number of reads for the same RNA divided by the total number of reads in the starting library).

[2] = test system: 5′GGU/3′C_A (G bulge of pre-miR-17 and pre-miR-20a); test: HiT-StARTS Fitness Score, 3×2 ILL selection; type: binding, human; conditions: Zobs normalized to most significant binder
Text: as §1, §2, §3, §4, §5

[3] = test system: 5′G_U/3′CUA (one nucleotide U bulge); test: HiT-StARTS Fitness Score, 3×2 ILL selection; type: binding, human; conditions: Zobs normalized to most significant binder
Text: as §1, §2, §3, §4, §5

selected RNA motifs = test: In solution fluorescence-based binding affinity measurement; conditions: read-out: Average Kd of Selected RNA Binders
Method: Bound RNA motifs for each compound were harvested from the array surface, amplified, and identified by using high throughput sequencing (RNA-seq). Highly abundant RNAs in the sequencing data were then subjected to binding measurements. Typically, those RNAs that were highly enriched bound to the small molecules with affinities (Kds) that ranged from 1 to 10 μM (FIG. 2 and Table 1) while binding to the starting libraries was not saturable. These affinities are promising for binding RNA, as it has been difficult to acquire low micromolar affinity with compounds of this low molecular weight. In fact, RNAs that have undergone Darwinian evolution to bind small molecules, namely riboswitches, often bind their cognate ligand at […] concentrations;^30-33 bioactive compounds that mimic riboswitch ligands bind with similar affinities.^30,34
Binding Affinity Measurements: An in solution, fluorescence-based assay was used to determine binding affinities by monitoring the change in fluorescence intensity of 1-FL (or 2-FL/3-FL/4-FL) as a function of RNA concentration as described previously.^18 Briefly, the RNA of interest was folded in 1× Folding Buffer (8 mM Na2HPO4, pH 7.0, 185 mM NaCl and 1 mM EDTA) by heating at 60° C. for 5 min followed by slowly cooling to room temperature on the bench top. Then, the FL-conjugated compound was added into the RNA solution to a final concentration of 100 nM. Serial dilutions were then completed using 1× Folding Buffer supplemented with 100 nM FL-conjugated compound. The solutions were incubated at room temperature for 30 min and then transferred to a well of a black 384-well plate. Fluorescence intensity was measured using a Bio-Tek FL×800 plate reader with an excitation wavelength of 485/20 nm and an emission wavelength of 528/20 nm. The change in fluorescence intensity as a function of the concentration of RNA was fit to equation 3:^9 I=I0+0.5 Δε{([FL]0+[RNA]0 +Kd)−(([FL]0+[RNA]0+Kd)^2−4[FL]0[RNA]0)^1/2} (3) where I is the observed fluorescence intensity; I0 is the fluorescence intensity in the absence of RNA; Δε is the difference between the fluorescence intensity in the absence of RNA and in the presence of infinite RNA concentration; [FL]0 is the concentration of compound; [RNA]0 is the concentration of the selected RNA; and Kd is the dissociation constant.

[4] = molecular target: RNAC (U bulge mutated to an AU pair); test: Fluorescence-based binding affinity measurement
Method: FIG. 7: Secondary structures of the nucleic acids to which the binding of small molecule 4 was assessed. […] RNA1 contains the U bulge present in the Dicer processing site common to miR-17, -18a and -20a. RNA2 contains the A bulge that is present in miR-18a. RNA3 contains the G bulge present in miR-17 and miR-20a. Binding affinities (Kd's) are indicated in parentheses and are reported in micromolar.
Mutation of the U bulge to an AU pair (RNAC) eliminates binding (Kd>100 μM).
Binding Affinity Measurements: An in solution, fluorescence-based assay was used to determine binding affinities by monitoring the change in fluorescence intensity of 1-FL (or 2-FL/3-FL/4-FL) as a function of RNA concentration as described previously.^18 Briefly, the RNA of interest was folded in 1× Folding Buffer (8 mM Na2HPO4, pH 7.0, 185 mM NaCl and 1 mM EDTA) by heating at 60° C. for 5 min followed by slowly cooling to room temperature on the bench top. Then, the FL-conjugated compound was added into the RNA solution to a final concentration of 100 nM. Serial dilutions were then completed using 1× Folding Buffer supplemented with 100 nM FL-conjugated compound. The solutions were incubated at room temperature for 30 min and then transferred to a well of a black 384-well plate. […]

- Kd (selected RNA motifs): 11 ± 2 µM
- Kd [4]: > 100 µM
Structure (SMILES): CN1CCN(c2ccc(-c3ccc4nc(-c5cc(C(C)(C)C)c(OCCCC(=O)NCCCN=[N+]=[N-])c(C(C)(C)C)c5)[nH]c4c3)cc2)CC1 [Compound 4]
- Fitness [1]: 91%
- Fitness [2]: 78%
- Fitness [3]: 100%
